The results in this text go back to patent US20140066431A1, “Benzoxazepines as Inhibitors of PI3K/mTOR and Methods of Their Use and Manufacture” (Exelixis, Inc., priority 2010, published 2014).

SMILES strings stand for the structures.

In one experiment the target is mTOR/GbL/Raptor (mTORC1) (Homo sapiens, UniProt P42345). Kind of experiment: mTOR/GbL/Raptor (mTORC1) ELISA assay. The class given is biochemical. Conditions: 0.2 nM mTORC1, 10 μM ATP, 50 nM 4E-BP1. How it is done:
The measurement of mTORC1 enzyme activity was performed in an ELISA assay format following the phosphorylation of 4E-BP1 protein. All experiments were performed in the 384-well format. Generally, 0.5 μL DMSO containing varying concentrations of the test compound was mixed with 15 μL enzyme solution. Kinase reactions were initiated with the addition of 15 μL of substrates-containing solution. The assay conditions were as follows; 0.2 nM mTORC1, 10 μM ATP and 50 nM NHis-tagged 4E-BP1 in 20 mM Hepes, pH 7.2, 1 mM DTT, 50 mM NaCl, 10 mM MnCl2, 0.02 mg/mL BSA, 0.01% CHAPS, 50 mM β-glycerophosphate. Following an incubation of 120 minutes at ambient temperature, 20 μL of the reaction volume was transferred to a Ni-Chelate-coated 384-well plate. The binding step of the 4E-BP1 protein proceeded for 60 minutes, followed by washing 4 times each with 50 μL of Tris-buffered saline solution (TBS). Anti-phospho-4E-BP1 rabbit-IgG (20 μL, 1:5000) in 5% BSA-TBST (0.2% Tween-20 in TBS) was added and further incubated for 60 minutes. Incubation with a secondary HRP-tagged anti-IgG was similarly performed after washing off the primary antibody (4 washes of 50 μL). Following the final wash step with TBST, 20 μL of SuperSignal ELISA Femto (Pierce Biotechnology) was added and the luminescence measured using an EnVision plate reader.
For orientation: An ELISA detects its analyte on a solid surface through an enzyme-linked reagent.
In the case of `CC1CCN(C(=O)N2CCOc3ccc(-c4cc(NCc5ccccc5)[nH]n4)cc3C2)CC1` [compound 9, 3-{4-[(4-methylpiperidin-1-yl)carbonyl]-2,3,4,5-tetrahydro-1,4-benzoxazepin-7-yl}-N-(phenylmethyl)-1H-pyrazol-5-amine], the “IC50 (mTORC1 ELISA)” value is on record as “not active”.
The same measure, in the same setting: the result for `Cc1nc2ccc(-c3ccc4c(c3)CN(C(=O)N3CCC(C5CCNCC5)CC3)CCO4)cc2[nH]1` [compound 71, 1-{[7-(2-methyl-1H-benzimidazol-6-yl)-2,3-dihydro-1,4-benzoxazepin-4(5H)-yl]carbonyl}-4,4′-bipiperidine] reads “not active”.
With `Cc1nc2ccc(-c3ccc4c(c3)CN(C(=O)N3CC[C@@H](O)C3)CCO4)cc2[nH]1` [compound 78, (3R)-1-{[7-(2-methyl-1H-benzimidazol-6-yl)-2,3-dihydro-1,4-benzoxazepin-4(5H)-yl]carbonyl}pyrrolidin-3-ol], the “IC50 (mTORC1 ELISA)” value is recorded as “not active”.
Same read-out and setting: the entry for `Cc1nc2ccc(-c3ccc4c(c3)CN(C(=O)N3CC[C@H](O)C3)CCO4)cc2[nH]1` [compound 82, (3S)-1-{[7-(2-methyl-1H-benzimidazol-6-yl)-2,3-dihydro-1,4-benzoxazepin-4(5H)-yl]carbonyl}pyrrolidin-3-ol] is “not active”.
On the same count and under the same terms, the result for `Cc1nc2ccc(-c3ccc4c(c3)CN(C(=O)N3CCCC3)CCO4)cc2[nH]1` [compound 87, 7-(2-methyl-1H-benzimidazol-6-yl)-4-(pyrrolidin-1-ylcarbonyl)-2,3,4,5-tetrahydro-1,4-benzoxazepine] reads “not active”.
On the same count and under the same terms, the entry for `Cc1nc2ccc(-c3ccc4c(c3)CN(C(=O)N3CC[S+]([O-])CC3)CCO4)cc2[nH]1` [compound 101, 7-(2-methyl-1H-benzimidazol-6-yl)-4-[(1-oxidothiomorpholin-4-yl)carbonyl]-2,3,4,5-tetrahydro-1,4-benzoxazepine] is “not active”.

A further experiment deals with PI3Kα (Homo sapiens, UniProt P42336). Kind of experiment: PI3K biochemical assay (ATP consumption, luciferase-luciferin). To be noted: 1.5 nM enzyme, 1 μM ATP, 10 μM PIP2. How it is done: PI3Kα activity is measured as the percent of ATP consumed following the kinase reaction using luciferase-luciferin-coupled chemiluminescence. Reactions were conducted in 384-well white, medium binding microtiter plates (Greiner). Kinase reactions were initiated by combining test compounds, ATP, substrate (PIP2), and kinase in a 20 μL volume in a buffer solution. The standard PI3Kalpha assay buffer is composed 50 mM Tris, pH 7.5, 1 mM EGTA, 10 mM MgCl2, 1 mM DTT and 0.03% CHAPS. The standard assay concentrations for enzyme, ATP, and substrate are 1.5 nM, 1 μM, and 10 μM, respectively. The reaction mixture was incubated at ambient temperature for approximately 2 h. Following the kinase reaction, a 10 μL aliquot of luciferase-luciferin mix (Promega Kinase-Glo) was added and the chemiluminescence signal measured using a Victor2 plate reader (Perkin Elmer). Total ATP consumption was limited to 40-60% and IC50 values of control compounds correlate well with literature references. Substituting PI3Kα with PI3Kβ, PI3Kγ, or PI3Kδ, the inhibitory activity of the compounds for the other isoforms of I3K were measured.
Chain of PI3Kα (P42336 whole entry): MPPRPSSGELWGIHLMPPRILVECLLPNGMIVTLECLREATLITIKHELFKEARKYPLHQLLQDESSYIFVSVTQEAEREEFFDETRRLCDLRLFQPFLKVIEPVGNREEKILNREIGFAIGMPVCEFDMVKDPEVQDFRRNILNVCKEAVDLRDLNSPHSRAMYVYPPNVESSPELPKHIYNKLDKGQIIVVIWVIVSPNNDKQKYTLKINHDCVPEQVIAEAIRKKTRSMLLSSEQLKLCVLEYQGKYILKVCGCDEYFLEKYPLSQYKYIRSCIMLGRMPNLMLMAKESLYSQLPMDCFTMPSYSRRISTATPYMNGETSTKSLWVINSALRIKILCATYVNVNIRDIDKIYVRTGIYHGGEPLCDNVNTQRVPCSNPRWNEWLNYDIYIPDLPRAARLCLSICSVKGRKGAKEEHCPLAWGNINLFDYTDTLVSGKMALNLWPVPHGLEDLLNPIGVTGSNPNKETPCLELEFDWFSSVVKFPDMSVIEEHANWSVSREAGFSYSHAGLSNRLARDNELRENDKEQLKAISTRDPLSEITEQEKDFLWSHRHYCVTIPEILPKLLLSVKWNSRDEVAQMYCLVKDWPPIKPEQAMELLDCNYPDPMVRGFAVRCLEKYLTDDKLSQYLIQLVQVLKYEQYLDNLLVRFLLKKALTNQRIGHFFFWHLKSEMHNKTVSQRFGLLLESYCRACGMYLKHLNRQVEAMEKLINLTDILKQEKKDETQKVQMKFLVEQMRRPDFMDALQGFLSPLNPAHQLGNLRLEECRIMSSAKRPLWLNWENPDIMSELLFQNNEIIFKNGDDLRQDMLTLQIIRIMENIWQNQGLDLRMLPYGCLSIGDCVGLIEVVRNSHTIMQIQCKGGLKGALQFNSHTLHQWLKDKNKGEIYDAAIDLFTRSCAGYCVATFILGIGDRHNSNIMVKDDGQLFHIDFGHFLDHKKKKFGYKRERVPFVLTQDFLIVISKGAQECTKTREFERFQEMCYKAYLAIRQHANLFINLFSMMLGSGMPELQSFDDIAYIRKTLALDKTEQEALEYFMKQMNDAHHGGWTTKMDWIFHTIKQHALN
Chain of PI3Kα (P27986 whole entry partner): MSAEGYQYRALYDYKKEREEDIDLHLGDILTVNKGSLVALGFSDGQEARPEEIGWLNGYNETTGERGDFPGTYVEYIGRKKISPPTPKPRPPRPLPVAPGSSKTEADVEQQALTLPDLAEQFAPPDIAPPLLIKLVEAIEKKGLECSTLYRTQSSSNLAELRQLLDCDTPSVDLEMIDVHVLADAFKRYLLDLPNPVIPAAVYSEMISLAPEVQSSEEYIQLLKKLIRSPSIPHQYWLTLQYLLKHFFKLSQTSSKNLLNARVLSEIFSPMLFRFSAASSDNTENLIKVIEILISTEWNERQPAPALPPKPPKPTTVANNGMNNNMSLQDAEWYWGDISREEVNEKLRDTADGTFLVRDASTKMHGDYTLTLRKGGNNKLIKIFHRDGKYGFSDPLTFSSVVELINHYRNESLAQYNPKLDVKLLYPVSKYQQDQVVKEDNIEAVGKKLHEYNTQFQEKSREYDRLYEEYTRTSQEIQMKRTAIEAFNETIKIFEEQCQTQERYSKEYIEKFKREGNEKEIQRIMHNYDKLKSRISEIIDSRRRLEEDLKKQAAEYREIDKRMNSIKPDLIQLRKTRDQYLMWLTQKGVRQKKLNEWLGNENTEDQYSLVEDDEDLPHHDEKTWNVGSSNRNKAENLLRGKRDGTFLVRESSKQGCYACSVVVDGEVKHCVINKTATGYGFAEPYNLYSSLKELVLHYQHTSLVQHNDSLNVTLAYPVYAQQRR
Consider `Cc1nc2cc(-c3ccc4c(c3)CN(C(=O)N3CC[C@@](C)(O)C[C@@H]3c3ccccc3)CCO4)ccc2[nH]1` (racemic) [compound 133, (±)-(2R,4R)-4-methyl-1-{[7-(2-methyl-1H-benzimidazol-5-yl)-2,3-dihydro-1,4-benzoxazepin-4(5H)-yl]carbonyl}-2-phenylpiperidin-4-ol], for which the “IC50 (PI3Kα biochemical assay)” value is listed as “not active”.
The same measure, in the same setting: the result for `CC1CCN(C(=O)N2CCOc3ccc(-c4ccc(N)nn4)cc3C2)CC1` [compound 1, 6-{4-[(4-methylpiperidin-1-yl)carbonyl]-2,3,4,5-tetrahydro-1,4-benzoxazepin-7-yl}pyridazin-3-amine] reads “not active”; that for `CC1CCN(C(=O)N2CCOc3ccc(-c4cnc(N)cn4)cc3C2)CC1` [compound 4, 5-{4-[(4-methylpiperidin-1-yl)carbonyl]-2,3,4,5-tetrahydro-1,4-benzoxazepin-7-yl}pyrazin-2-amine], “not active”; that for `Nc1cnc(-c2ccc3c(c2)CN(C(=O)N2CCC(C(F)(F)F)CC2)CCO3)cn1` [compound 6, 5-(4-{[4-(trifluoromethyl)piperidin-1-yl]carbonyl}-2,3,4,5-tetrahydro-1,4-benzoxazepin-7-yl)pyrazin-2-amine], “not active”.
Still for that read-out and setting: the result for `CC1CCN(C(=O)N2CCOc3ccc(-c4cc(N)[nH]n4)cc3C2)CC1` [compound 10, 3-{4-[(4-methylpiperidin-1-yl)carbonyl]-2,3,4,5-tetrahydro-1,4-benzoxazepin-7-yl}-1H-pyrazol-5-amine] reads “not active”; that for `Cc1nc2ccc(-c3ccc4c(c3)CN(C(=O)N3CCCC[C@H]3c3ccccc3)CCO4)cc2[nH]1` [compound 65, 7-(2-methyl-1H-benzimidazol-6-yl)-4-{[(2S)-2-phenylpiperidin-1-yl]carbonyl}-2,3,4,5-tetrahydro-1,4-benzoxazepine], “not active”.
On the same count and under the same terms, the result for `Cc1nc2ccc(-c3ccc4c(c3)CN(C(=O)N3[C@@H]5CC[C@H]3C[C@@H](N)C5)CCO4)cc2[nH]1` [compound 77, 8-{[7-(2-methyl-1H-benzimidazol-6-yl)-2,3-dihydro-1,4-benzoxazepin-4(5H)-yl]carbonyl}-8-azabicyclo[3.2.1]octan-3-(endo)-amine] reads “not active”; that for `Cc1nc2ccc(-c3ccc4c(c3)CN(C(=O)N3CCCCC3Cc3ccccc3)CCO4)cc2[nH]1` (stereo not drawn) [compound 104, 7-(2-methyl-1H-benzimidazol-6-yl)-4-{[2-(phenylmethyl)piperidin-1-yl]carbonyl}-2,3,4,5-tetrahydro-1,4-benzoxazepine], “not active”.
`Cc1nc2ccc(-c3ccc4c(c3)CN(C(=O)N3CCCCC3c3ccc(F)cc3C)CCO4)cc2[nH]1` (stereo not drawn) [compound 117, 4-{[2-(4-fluoro-2-methylphenyl)piperidin-1-yl]carbonyl}-7-(2-methyl-1H-benzimidazol-6-yl)-2,3,4,5-tetrahydro-1,4-benzoxazepine]: the “IC50 (PI3Kα biochemical assay)” value is “not active”.
On the same count and under the same terms, the entry for `Cc1nc2ccc(-c3ccc4c(c3)CN(C(=O)N3CCCCC3c3ccccc3C)CCO4)cc2[nH]1` (stereo not drawn) [compound 126, 7-(2-methyl-1H-benzimidazol-6-yl)-4-{[2-(2-methylphenyl)piperidin-1-yl]carbonyl}-2,3,4,5-tetrahydro-1,4-benzoxazepine] is “not active”; for `Cc1nc2ccc(-c3ccc4c(c3)CN(C(=O)N3CCC(O)(c5ccc(C(F)(F)F)cc5)CC3)CCO4)cc2[nH]1` [compound 141, 1-{[7-(2-methyl-1H-benzimidazol-6-yl)-2,3-dihydro-1,4-benzoxazepin-4(5H)-yl]carbonyl}-4-[4-(trifluoromethyl)phenyl]piperidin-4-ol] it is “not active”; for `Cc1nc2ccc(-c3ccc4c(c3)CN(C(=O)N3CCN(C)C(=O)C3)CCO4)cc2[nH]1` [compound 146, 1-methyl-4-{[7-(2-methyl-1H-benzimidazol-6-yl)-2,3-dihydro-1,4-benzoxazepin-4(5H)-yl]carbonyl}piperazin-2-one] it is “not active”.
For the compound `Cc1nc2ccc(-c3ccc4c(c3)CN(C(=O)NC3[C@H]5C[C@@H]6C[C@@H](C[C@H]3C6)C5)CCO4)cc2[nH]1` (stereo partly drawn) [compound 149, 7-(2-methyl-1H-benzimidazol-6-yl)-N-[(1r,3r,5R,7R)-tricyclo[3.3.1.1~3,7~]dec-2-yl]-2,3-dihydro-1,4-benzoxazepine-4(5H)-carboxamide], the “IC50 (PI3Kα biochemical assay)” value is recorded as “not active”.
Still for that read-out and setting: the result for `Cc1nc2ccc(-c3ccc4c(c3)CN(C(=O)N3CCN(Cc5c(F)cccc5Cl)CC3)CCO4)cc2[nH]1` [compound 152, 4-({4-[(2-chloro-6-fluoropheny)methyl]piperazin-1-yl}carbonyl)-7-(2-methyl-1H-benzimidazol-6-yl)-2,3,4,5-tetrahydro-1,4-benzoxazepine] reads “not active”; that for `CCC1CC2(CCN(C(=O)N3CCOc4ccc(-c5ccc6nc(C)[nH]c6c5)cc4C3)CC2)CC(=O)N1` (stereo not drawn) [compound 155, 4-ethyl-9-{[7-(2-methyl-1H-benzimidazol-6-yl)-2,3-dihydro-1,4-benzoxazepin-4(5H)-yl]carbonyl}-3,9-diazaspiro[5.5]undecan-2-one], “not active”; that for `Cc1nc2ccc(-c3ccc4c(c3)CN(C(=O)N3CCN(c5ccccc5F)CC3)CCO4)cc2[nH]1` [compound 165, 4-{[4-(2-fluorophenyl)piperazin-1-yl]carbonyl}-7-(2-methyl-1H-benzimidazol-6-yl)-2,3,4,5-tetrahydro-1,4-benzoxazepine], “not active”.
As to `Cc1nc2ccc(-c3ccc4c(c3)CN(C(=O)N3CCC(Cc5ccccc5)CC3)CCO4)cc2[nH]1` [compound 171], the “IC50 (PI3Kα biochemical assay)” value is “not active”.
Same read-out and setting: the result for `CCCCN(Cc1ccccc1)C(=O)N1CCOc2ccc(-c3ccc4nc(C)[nH]c4c3)cc2C1` [compound 173, N-butyl-7-(2-methyl-1H-benzimidazol-6-yl)-N-(phenylmethyl)-2,3-dihydro-1,4-benzoxazepine-4(5H)-carboxamide] reads “not active”.
